Patent publication US20260083851A1 (AVILAR THERAPEUTICS, INC., priority 2022, published 2026)

target: T1, ASGP receptor (biotinylated ASGPR) (Homo sapiens, UniProt P07306); assay type: binding; conditions: SPR, Biacore 8K, 25° C.; Table 1A; read-out: ASGPR KD
T1 construct: biotin (biotinylated)
T1 sequence (P07306 1-291): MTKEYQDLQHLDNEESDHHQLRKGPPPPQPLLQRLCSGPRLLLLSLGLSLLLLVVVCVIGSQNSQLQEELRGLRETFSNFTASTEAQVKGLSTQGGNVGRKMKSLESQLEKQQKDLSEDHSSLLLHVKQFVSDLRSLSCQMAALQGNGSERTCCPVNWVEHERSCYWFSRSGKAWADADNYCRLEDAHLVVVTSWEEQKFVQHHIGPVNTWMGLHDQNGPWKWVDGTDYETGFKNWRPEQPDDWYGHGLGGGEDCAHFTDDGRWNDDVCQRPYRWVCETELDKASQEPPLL

Kd	SMILES
< 10 µM	O=C(O)c1ccc(-c2ccc(C(=O)NC[C@H]3OC[C@H](Nc4cncc(C(F)(F)F)n4)[C@@H](O)[C@H]3O)cc2)cc1 [A38, 4′-((((2R,3R,4R,5S)-3,4-dihydroxy-5-((6-(trifluoromethyl)pyrazin-2-yl)amino)tetrahydro-2H-pyran-2-yl)methyl)carbamoyl)-[1,1′-biphenyl]-4-carboxylic acid]
< 10 µM	O=C(NC[C@H]1OC[C@H](Nc2cncc(C(F)(F)F)n2)[C@@H](O)[C@H]1O)c1ccn[nH]1 [A49]
< 10 µM	O=C(NC[C@H]1OC[C@H](Nc2cncc(C(F)(F)F)n2)[C@@H](O)[C@H]1O)Nc1ccccc1 [A114, 1-(((2R,3R,4R,5S)-3,4-dihydroxy-5-((6-(trifluoromethyl)pyrazin-2-yl)amino)tetrahydro-2H-pyran-2-yl)methyl)-3-phenylurea]
< 10 µM	O=C(NC[C@H]1OC[C@H](Nc2cncc(C(F)(F)F)n2)[C@@H](O)[C@H]1O)c1cccc(F)c1 [A24, N-(((2R,3R,4R,5S)-3,4-dihydroxy-5-((6-(trifluoromethyl)pyrazin-2-yl)amino)tetrahydro-2H-pyran-2-yl)methyl)-3-fluorobenzamide]
< 10 µM	O[C@@H]1[C@H](O)[C@@H](Nc2cncc(C(F)(F)F)n2)CO[C@@H]1COc1ncccn1 [A61, (2R,3R,4R,5S)-2-((pyrimidin-2-yloxy)methyl)-5-((6-(trifluoromethyl)pyrazin-2-yl)amino)tetrahydro-2H-pyran-3,4-diol]
< 10 µM	O[C@@H]1[C@H](O)[C@@H](Nc2cncc(C(F)(F)F)n2)CO[C@@H]1CN1CCCNCC1 [A68, (2R,3R,4R,5S)-2-((1,4-diazepan-1-yl)methyl)-5-((6-(trifluoromethyl)pyrazin-2-yl)amino)tetrahydro-2H-pyran-3,4-diol]
< 10 µM	O=C(O)c1ccc(S(=O)(=O)NC[C@H]2OC[C@H](Nc3cncc(C(F)(F)F)n3)[C@@H](O)[C@H]2O)cc1 [A111, 4-(N-(((2R,3R,4R,5S)-3,4-dihydroxy-5-((6-(trifluoromethyl)pyrazin-2-yl)amino)tetrahydro-2H-pyran-2-yl)methyl)sulfamoyl)benzoic acid]
< 10 µM	NC[C@H]1OC[C@H](Nc2cccc(C(F)(F)F)n2)[C@@H](O)[C@H]1O [A98, (2R,3R,4R,5S)-2-(aminomethyl)-5-((6-(trifluoromethyl)pyridin-2-yl)amino) tetrahydro-2H-pyran-3,4-diol]
< 10 µM	O[C@@H]1[C@H](O)[C@@H](Nc2cncc(C(F)(F)F)n2)CO[C@@H]1COCCOCCNc1cnccn1 [A56, (2R,3R,4R,5S)-2-((2-(2-(pyrazin-2-ylamino)ethoxy)ethoxy)methyl)-5-((6-(trifluoromethyl)pyrazin-2-yl)amino)tetrahydro-2H-pyran-3,4-diol]
< 10 µM	O=C(NC[C@H]1OC[C@H](Nc2cncc(C(F)(F)F)n2)[C@@H](O)[C@H]1O)c1ncco1 [A50]
< 10 µM	O=C(NC[C@H]1OC[C@H](Nc2cncc(C(F)(F)F)n2)[C@@H](O)[C@H]1O)c1ncc[nH]1 [A40, N-(((2R,3R,4R,5S)-3,4-dihydroxy-5-((6-(trifluoromethyl)pyrazin-2-yl)amino)tetrahydro-2H-pyran-2-yl)methyl)-1H-imidazole-2-carboxamide]
< 10 µM	O[C@@H]1[C@H](O)[C@@H](Nc2cncc(C(F)(F)F)n2)CO[C@@H]1CNc1ncncn1 [A85, (2R,3R,4R,5S)-2-(((1,3,5-triazin-2-yl)amino)methyl)-5-((6-(trifluoromethyl)pyrazin-2-yl)amino)tetrahydro-2H-pyran-3,4-diol]
< 10 µM	O=C(NC[C@H]1OC[C@H](Nc2cncc(C(F)(F)F)n2)[C@@H](O)[C@H]1O)c1ncc2ccccc2n1 [A81, N-(((2R,3R,4R,5S)-3,4-dihydroxy-5-((6-(trifluoromethyl)pyrazin-2-yl)amino)tetrahydro-2H-pyran-2-yl)methyl)quinazoline-2-carboxamide]
< 10 µM	O=C(O)COCCOCCOCC(=O)NC[C@H]1OC[C@H](Nc2cncc(C(F)(F)F)n2)[C@@H](O)[C@H]1O [A33]

same assay, conditions: SPR, Biacore 8K, 25° C.; Table 1B; read-out: ASGPR Kd

Kd	SMILES
< 10 µM	COc1cc(N[C@H]2CO[C@H](CO)[C@H](O)[C@@H]2O)nc(C(F)(F)F)c1 [A151, (2R,3R,4R,5S)-2-(hydroxymethyl)-5-((4-methoxy-6-(trifluoromethyl)pyridin-2-yl)amino)tetrahydro-2H-pyran-3,4-diol]
< 10 µM	O=C1CCCN1C[C@H]1OC[C@H](Nc2cncc(C(F)(F)F)n2)[C@@H](O)[C@H]1O [A157, 1-(((2R,3R,4R,5S)-3,4-dihydroxy-5-((6-(trifluoromethyl)pyrazin-2-yl)amino)tetrahydro-2H-pyran-2-yl)methyl)pyrrolidin-2-one]

same assay, conditions: SPR, Biacore 8K, 25° C.; Table 1C, numeric bound; read-out: ASGPR KD

Kd	SMILES
> 30 µM	OC[C@H]1OC[C@H](Nc2ncc3c(n2)CCC3)[C@@H](O)[C@H]1O [A182, (2R,3R,4R,5S)-5-((6,7-dihydro-5H-cyclopenta[d]pyrimidin-2-yl)amino)-2-(hydroxymethyl)tetrahydro-2H-pyran-3,4-diol]

same assay, conditions: SPR, Biacore 8K, 25° C.; Table 1C; read-out: ASGPR KD

Kd	SMILES
< 10 µM	O=C(O)c1ccc(OC[C@H]2OC[C@H](Nc3cccc(C(F)(F)F)n3)[C@@H](O)[C@H]2O)nn1 [A317]
< 10 µM	O[C@@H]1[C@H](O)[C@@H](Nc2cccc(C(F)(F)F)n2)CO[C@@H]1COc1cnccn1 [A239]
< 10 µM	C[C@H]1O[C@@H](c2ccc(N3CCNCC3)cc2)[C@H](Oc2cccc(C(F)(F)F)n2)[C@@H](O)[C@H]1O [A303]
< 10 µM	O[C@@H]1[C@@H](Nc2cncc(C(F)(F)F)n2)[C@H]2OC[C@](COc3cnccn3)(O2)[C@@H]1O [A269]
< 10 µM	OC[C@H]1O[C@H](Oc2ccc(N3CCNCC3)cc2)[C@H](Oc2cccc(C(F)(F)F)n2)[C@@H](O)[C@H]1O [A237]
< 10 µM	O[C@@H]1[C@H](O)[C@@H](Oc2cccc(C(F)(F)F)n2)[C@@H](c2ccccc2)O[C@@H]1C(F)F [A330]
< 10 µM	N#Cc1ncc(OC[C@H]2OC[C@H](Nc3cncc(C(F)(F)F)n3)[C@@H](O)[C@H]2O)cn1 [A203, 5-(((2R,3R,4R,5S)-3,4-dihydroxy-5-((6-(trifluoromethyl)pyrazin-2-yl)amino)tetrahydro-2H-pyran-2-yl)methoxy)pyrimidine-2-carbonitrile]
< 10 µM	CC[C@]1(COc2ccc(C(=O)O)nn2)O[C@H](O)[C@H](Nc2cccc(C(F)(F)F)n2)[C@@H](O)[C@H]1O [A314]
< 10 µM	O[C@@H]1[C@H](O)[C@@H](Nc2cccc(C(F)(F)F)n2)CO[C@@H]1COc1cccnn1 [A227, (2R,3R,4R,5S)-2-((pyridazin-3-yloxy)methyl)-5-((6-(trifluoromethyl)pyridine-2-yl)amino)tetrahydro-2H-pyran-3,4-diol]
< 10 µM	O=C1c2ccccc2CN1C[C@H]1OC[C@H](Nc2cccc(C(F)(F)F)n2)[C@@H](O)[C@H]1O [A277]
< 10 µM	O=C(O)c1ccc(N2CCN(C[C@H]3OC[C@H](Oc4cccc(C(F)(F)F)n4)[C@@H](O)[C@H]3O)CC2)nn1 [A276]
< 10 µM	CC(C)(C)OC(=O)N1CCC(n2cc([C@H]3OC[C@H](Nc4cncc(C(F)(F)F)n4)[C@@H](O)[C@H]3O)nn2)CC1 [A193, tert-butyl 4-(4-((2R,3R,4R,5S)-3,4-dihydroxy-5-((6-(trifluoromethyl)pyrazin-2-yl)amino)tetrahydro-2H-pyran-2-yl)-1H-1,2,3-triazol-1-yl)piperidine-1-carboxylate]

same assay, conditions: SPR, Biacore 8K, 25° C.; Table 1D, numeric bound; read-out: ASGPR KD

Kd	SMILES
> 30 µM	O=C(OCc1ccccc1)N1C[C@H](Nc2ccc(C(F)(F)F)cn2)[C@@H](O)[C@@H](O)C1 [A374]
> 30 µM	O[C@@H]1[C@@H](Nc2ncnn3cccc23)CNC[C@@H]1O [A400]

same assay, conditions: SPR, Biacore 8K, 25° C.; Table 1D; read-out: ASGPR KD

Kd	SMILES
< 10 µM	CC(=O)NNC(=O)N1C[C@H](Oc2cccc(C(F)(F)F)n2)[C@@H](O)[C@@H](O)C1 [A357]
< 10 µM	O=C(OCc1ccccc1)N1CCC(c2cnc(OC[C@H]3OC[C@H](Nc4cncc(C(F)(F)F)n4)[C@@H](O)[C@H]3O)cn2)CC1 [A409]
< 10 µM	O=C(OCc1ccccc1)N1C[C@H](Oc2cncc(C(F)(F)F)n2)[C@@H](O)[C@@H](O)C1 [A385]
< 10 µM	O[C@@H]1[C@@H](Oc2cccc(C(F)(F)F)n2)CNC[C@@H]1O [A388]
< 10 µM	O=C(OCc1ccccc1)N1C[C@H](Nc2nccc(C(F)(F)F)n2)[C@@H](O)[C@@H](O)C1 [A369]
< 10 µM	CN1C[C@H](Nc2nccc(C(F)(F)F)n2)[C@@H](O)[C@@H](O)C1 [A372]
< 10 µM	CCOC(=O)c1nc(N2C[C@H](Oc3cccc(C(F)(F)F)n3)[C@@H](O)[C@@H](O)C2)no1 [A360]

same assay, conditions: SPR, Biacore 8K, 25° C.; Table 1E; read-out: ASGPR KD

Kd	SMILES
< 10 µM	C[C@H]1O[C@H](COc2cnccn2)[C@H](Oc2cncc(C(F)(F)F)n2)[C@@H](O)[C@H]1O [A434]
< 10 µM	C[C@H]1O[C@H](COc2cccnn2)[C@H](Oc2cccc(C(F)(F)F)n2)[C@@H](O)[C@H]1O [A441]

same assay, conditions: SPR; Table 2; read-out: ASGPR SPR Binding KD

Kd	SMILES
< 0.1 µM	CC1(C)C(=O)c2ccc(-c3cnc(N4CCN5C(=O)N(CCOCCOCCOCC(=O)NC(COCCC(=O)NCCOCCOCCOCCOC[C@H]6OC[C@H](Nc7cncc(C(F)(F)F)n7)[C@@H](O)[C@H]6O)COCCC(=O)NCCOCCOCCOCCOC[C@H]6OC[C@H](Nc7cncc(C(F)(F)F)n7)[C@@H](O)[C@H]6O)C[C@@H]5C4)nc3)nc2N1Cc1cccnc1C#N [compound 19]
< 0.1 µM	O=C(CCOCC(COCCC(=O)NC[C@H]1OC[C@H](Nc2cncc(C(F)(F)F)n2)[C@@H](O)[C@H]1O)NCC(=O)N1CCN(Cc2ccc(-c3c[nH]c4ccncc34)c(OCCc3ccc(-c4cccc5ccncc45)cc3)c2)CC1)NC[C@H]1OC[C@H](Nc2cncc(C(F)(F)F)n2)[C@@H](O)[C@H]1O [compound 21]
